# Measured values: patent US12532889B2, “Herbicidal compositions comprising glufosinate” (BASF SE, priority 2023, dated 2026)
# Where “and” joins values, the source holds several entries; their conditions need not be identical. Equal entries are not always repeated.
# Columns and labels:
# Assay in all cases: Post-emergence application in field trials (Example A)
# Type in all cases: in vivo
# [1] = system: DIGSA (Digitaria sanguinalis); settings: height 10-15 cm
# Method: (§1) In the examples below, using the method of S. R. Colby (1967) “Calculating synergistic and antagonistic responses of herbicide combinations”, Weeds 15, p. 22ff., the value E, which is expected if the activity of the individual active compounds is only additive, was calculated:
# (§2) [formula] • where • X=percent activity using active herbicide A at an application rate a; • Y=percent activity using active herbicide B (e.g. glufosinate) at an application rate b; • E=expected activity (in %) by A+B at application rates a+b.
# (§3) If the value found experimentally is higher than the value E calculated according to Colby, a synergistic effect is present.
# (§4) On field test sites, natural weed infestation or seeded weeds were treated post-emergence of the weeds.
# (§5) In the field trials, the weeds were treated as indicated below.
# (§6) In the following experiments, the herbicidal activity for the individual herbicidal compositions (solo and mixture applications) was assessed at the indicated days after treatment (DAT). The assessments for the damage on undesired weeds caused by the composition was carried out using a scale from 0 to 100%, compared to the untreated control plants. Here, 0 means no damage and 100 means complete destruction of the plants.
# [2] = system: ECHCG (Echinocloa crus-galli); settings: growth stage 23-30, height 15-20 cm
# Method: as §1, §2, §3, §4, §5, §6
# GLXMA (Glycine max) = settings: 42 DAT, growth stage 13, height 5-10 cm
# Method: as §1, §2, §3, §4, §5, §6
# [3] = system: HORVW (Hordeum vulgare (winter barley)); settings: growth stage 23-29, height 20-25 cm
# Method: as §1, §2, §3, §4, §5, §6
# [4] = system: LOLMU (Lolium multiflorum); settings: growth stage 22-25, height 20-25 cm
# Method: as §1, §2, §3, §4, §5, §6
# [5] = system: SETVE (Setaria verticillata); settings: 42 DAT; C-4 12.5 g ai/ha; growth stage 21-23; height 8-16 cm
# Method: as §1, §2, §3, §4, §5, §6
# ZEAMX (Zea mays) = settings: C-4 12.5 g ai/ha, growth stage 15-16
# Method: as §1, §2, §3, §4, §5, §6
smiles,measurement,setting,value
"CC(C)N(C)S(=O)(=O)NC(=O)c1cc(-n2c(=O)cc(C(F)(F)F)n(C)c2=O)c(F)cc1Cl [C-1, saflufenacil]",% Herbicidal activity,"[1]; 20 DAT, C-1 12.5 g ai/ha, growth stage 21-22",20%
same,% Herbicidal activity,"[2]; 7 DAT, C-1 12.5 g ai/ha",20%
same,% Herbicidal activity,"[2]; 28 DAT, C-1 12.5 g ai/ha",20%
same,% Herbicidal activity,GLXMA (Glycine max); C-1 12.5 g ai/ha,60%
same,% Herbicidal activity,"[3]; 7 DAT, C-1 12.5 g ai/ha",20%
same,% Herbicidal activity,"[4]; 7 DAT, C-1 12.5 g ai/ha",20%
same,% Herbicidal activity,"[4]; 28 DAT, C-1 12.5 g ai/ha",20%
"C#CCN1C(=O)C(F)(F)Oc2cc(F)c(-n3c(=O)n(C)c(=S)n(C)c3=O)cc21 [C-4, trifludimoxazin]",% Herbicidal activity,"[1]; 7 DAT, C-4 12.5 g ai/ha, growth stage 22",40%
same,% Herbicidal activity,"[1]; 21 DAT, C-4 12.5 g ai/ha, growth stage 22",40%
same,% Herbicidal activity,"[1]; 41 DAT, C-4 12.5 g ai/ha, growth stage 22",25%
same,% Herbicidal activity,"[1]; 42 DAT, C-4 12.5 g ai/ha, growth stage 22",25%
same,% Herbicidal activity,"[2]; 7 DAT, C-4 12.5 g ai/ha",40%
same,% Herbicidal activity,"[2]; 21 DAT, C-4 12.5 g ai/ha",20%
same,% Herbicidal activity,"[2]; 28 DAT, C-4 12.5 g ai/ha",40% and 20%
same,% Herbicidal activity,GLXMA (Glycine max); C-4 12.5 g ai/ha,60%
same,% Herbicidal activity,"[3]; 7 DAT, C-4 12.5 g ai/ha",40% and 30%
same,% Herbicidal activity,"[3]; 21 DAT, C-4 12.5 g ai/ha",30%
same,% Herbicidal activity,"[4]; 7 DAT, C-4 12.5 g ai/ha",40%
same,% Herbicidal activity,"[4]; 28 DAT, C-4 12.5 g ai/ha",30%
same,% Herbicidal activity,[5],25%
same,% Herbicidal activity,"ZEAMX (Zea mays); 21 DAT, height 27-33 cm",30%
same,% Herbicidal activity,"ZEAMX (Zea mays); 28 DAT, height 50-60 cm",30%
same,% Herbicidal activity,"ZEAMX (Zea mays); 42 DAT, height 27-33 cm",25% and 20%
